# Reference: patent publication EP3727043B1 (Golden Gait Biotech, S.L., priority 2017, dated 2019)
# Where two headings read alike, the source gives them in different places.
# Key:
# [1] = test system: patients with idiopathic PD and levodopa induced dyskinesias (LIDs)
# Protocol: At the time the study was performed (2009), there was no FDA accepted instrument for measuring treatment efficacy for LIDs. Therefore, several secondary objectives were utilized to assess efficacy including the Unified Dyskinesia Rating Scale (UDysRS).
# A total of 65 male and female subjects with idiopathic PD with LIDs were randomized in the study. The study consisted of 4 phases (FIG. 6A): screening phase (up to 3 weeks), double-blind treatment phase (10 weeks), taper phase (2 weeks), and follow-up phase (2 weeks). The approximate duration of the study for each subject was 17 weeks. […] During the double-blind treatment phase, dosing was begun at Visit 0 at 1 mg every 6 hours (total daily dose [TDD] = 4 mg/day) and escalated upwards at 2-week intervals as follows: 2 mg every 6 hours (TDD = 8 mg/day) at Visit 1 (Week 2); 4 mg every 6 hours (TDD = 16 mg/day) at Visit 2 (Week 4); 6 mg every 6 hours (TDD = 24 mg/day) at Visit 3 (Week 6). Subjects were maintained on 24 mg/day for 4 weeks. The subsequent taper phase (2 weeks total), beginning at Visit 4 (Week 10), consisted of 9 days of drug taper and 5 days off drug prior to Visit 5 (final safety visit). […] Ondansetron was provided by the sponsor and dispensed with each dose escalation step with instructions to use it for nausea and vomiting only during the first 4 days following dose initiation or escalation. […] No other dose down-titration was allowed. Table 5. Dose Escalation Schedule
# A total of 65 patients with idiopathic PD and levodopa induced dyskinesias (LIDs) were randomized. Patients were required to have a diagnosis of idiopathic PD and be within a Hoehn & Yahr Stage II - IV while in a peak "ON" state(levodopa in a therapeutic range). They had to have moderate to severely disabling LIDs for at least 25% of the waking day, as determined by Questions 32 and 33 in Part II of the UPDRS and a Mini-Mental State Examination (MMSE) score of ≥26. Patients with atypical Parkinson disorders, prior deep brain stimulation (DBS), unstable angina, a history of ventricular arrhythmias, or active peptic ulcer or a history of schizophrenia, schizoaffective disorder, or bipolar disease were excluded. Patients who actively smoked were also excluded. Table 9: Demographics
# The drug, or a placebo identical in appearance and packaging, was administered orally 4 times a day in a blinded fashion. Patients were examined while in an "ON" state, when levodopa was in a therapeutic range. During the treatment phase, dosing was begun at 1 mg every 6 hours (total daily dose=4 mg/day) and escalated upwards at 2-week intervals as follows: 2 mg every 6 hours at Visit 1; 4 mg every 6 hours at Visit 2; 6 mg every 6 hours at Visit 3. Patients were maintained on 24 mg/day for 4 weeks. All patients, study site personnel, raters and the sponsor were blinded to treatment assignment.
# The original UPDRS scale was used. […] In the UPDRS Part II, Question 13 is on Falling unrelated to Freezing. […] In Part II, Question 14 is on Freezing when Walking. This is a 5-point item and has two variables freezing and falls. […] Questions 13 and 14 were compared separately (Table 11). […] Table 10: UPDRS Part II (ADL), UPDRS Part III (Motor Examination)
# LIDs were assessed by the UDysRS, the main measure of LIDs (Table 12). […] The study was conducted in accordance with the Declaration of Helsinki and Good Clinical Practice Guidelines. All sites received approval from an institutional review board and written informed consent was obtained from each patient prior to participation. Table 12. Unified Dyskinesia Rating Scale (UDysRS)
# All hypotheses were tested using 2-sided tests with alpha set at the 0.050 level of significance. In general, efficacy data were summarized by treatment group, and safety data were summarized by treatment group and overall.
# [2] = test system: patients with idiopathic PD and levodopa induced dyskinesias (LIDs); remark: listed apart in the source
# Protocol: Efficacy was measured with the Unified Dyskinesia Rating Scale (UDysRS), a semi- quantitative assessment, FDA-validated instrument to assess gait, balance and dyskinesia in PD. […] Dosing was begun at 1 mg every 6 hours to a final dose of 24 mg per day.
# All hypotheses were tested using 2-sided tests with alpha set at the 0.050 level of significance. In general, efficacy data were summarized by treatment group, and safety data were summarized by treatment group and overall. In all analyses, assumptions such as normality and homogeneity of variance were examined prior to conducting the proposed parametric statistical procedures. Categorical variables were analyzed by Fisher's exact 2- tailed test and continuous variables were tested under 2-sample t-tests. The equality of variances was examined using an F-test before applying the 2-sample t-test.
# [3] = oral administration of capsules
# clinical = settings: human, plasma, po
# [4] = Baseline to Week 10, 30 NP002 patients
# [5] = Baseline to Week 10, minus = improvement, 30 NP002 patients
# [6] = Baseline to Week 10, plus = worsening, 30 NP002 patients
# [7] = NP002 Patients Baseline (before treatment)
# [8] = NP002 patients at 10 Weeks, up to 24 mg/day orally
# [9] = NP002 patients at Baseline (before treatment)
smiles,measurement,setting,value
"CN1CCCC1c1cccnc1.O=C(O)C(O)C(O)C(=O)O (centres unmarked) [NP002, Nicotine Bitartrate]","UPDRS Part II (ADL) and Part III (Motor Examination) after treatment, NP002 vs placebo",[1]; 10 weeks,no significant differences
same,"Falls (UPDRS Part II Question 13), number of patients with change -3","[1]; Baseline to Week 10, 5-point scale, minus = improvement, 30 NP002 patients",1
same,"FOG (UPDRS Part II Question 14), number of patients with No Change",[1]; [4],17
same,"FOG (UPDRS Part II Question 14), number of patients with change +2",[1]; [4],0
same,"FOG (UPDRS Part II Question 14), number of patients with change +3",[1]; [4],0
same,"FOG (UPDRS Part II Question 14), number of patients with change -1",[1]; [4],10
same,"FOG (UPDRS Part II Question 14), number of patients with change -2",[1]; [4],2
same,"Falls (UPDRS Part II Question 13), number of patients with No Change",[1]; [4],16
same,"Falls (UPDRS Part II Question 13), number of patients with change +2",[1]; [4],0
same,"Falls (UPDRS Part II Question 13), number of patients with change +3",[1]; [4],0
same,"Falls (UPDRS Part II Question 13), number of patients with change -1",[1]; [4],7
same,"Falls (UPDRS Part II Question 13), number of patients with change -2",[1]; [4],5
same,"Pull Test (Item 30 of the UPDRS Part III), number of patients with No Change",[1]; [4],19
same,"Pull Test (Item 30 of the UPDRS Part III), number of patients with change +2",[1]; [4],0
same,"Pull Test (Item 30 of the UPDRS Part III), number of patients with change +3",[1]; [4],0
same,"Pull Test (Item 30 of the UPDRS Part III), number of patients with change -1",[1]; [4],5
same,"Pull Test (Item 30 of the UPDRS Part III), number of patients with change -2",[1]; [4],5
same,"FOG (UPDRS Part II Question 14), number of patients with change -3",[1]; [5],0
same,"Pull Test (Item 30 of the UPDRS Part III), number of patients with change -3",[1]; [5],0
same,"FOG (UPDRS Part II Question 14), number of patients with change +1",[1]; [6],1
same,"Falls (UPDRS Part II Question 13), number of patients with change +1",[1]; [6],1
same,"Pull Test (Item 30 of the UPDRS Part III), number of patients with change +1",[1]; [6],1
same,patients with a reduction in falls,"[1]; Fourteen of 30 NP002 patients, p=0.00857 vs placebo",47%
same,Total Score UDysRS,[1]; [7],51.7 +/-16.9
same,UDysRS Evaluation of Dyskinesias on 7 Body Parts,[1]; [7],13.5 +/-5.4
same,UDysRS Evaluation of Dyskinesias on Ambulation,[1]; [7],9.5 +/- 6.0
same,UDysRS Evaluation of Dyskinesias on Communication,[1]; [7],10.5 +/-4.8
same,UDysRS Evaluation of Dyskinesias on Dressing,[1]; [7],11.3 +/-6.2
same,UDysRS Evaluation of Dyskinesias on Drinking,[1]; [7],9.1 +/- 5.6
same,Total Score UDysRS,[1]; NP002 Patients Week 10,36.4 +/-16.1
same,UDysRS Evaluation of Dyskinesias on 7 Body Parts,[1]; NP002 Patients Week 10,8.5 +/- 5.4
same,UDysRS Evaluation of Dyskinesias on Ambulation,[1]; NP002 Patients Week 10,5.1 +/- 5.3
same,UDysRS Evaluation of Dyskinesias on Communication,[1]; NP002 Patients Week 10,7.0 +/- 5.0
same,UDysRS Evaluation of Dyskinesias on Dressing,[1]; NP002 Patients Week 10,6.9 +/- 5.5
same,UDysRS Evaluation of Dyskinesias on Drinking,[1]; NP002 Patients Week 10,5.3 +/- 5.0
same,UPDRS II,[1]; [8],10.1 ± 5.3
same,UPDRS III,[1]; [8],17.3 ± 10.6
same,UPDRS II,[1]; [9],13.1 ± 6.0
same,UPDRS III,[1]; [9],20.0 ± 8.8
same,"Difference in LS Means 95% Confidence Interval, UPDRS Part III","[1]; NP002 versus Placebo, p-value 0.337","-18.3 ± 1.8 (-5.8, 2.0)"
same,"Difference in LS Means 95% Confidence Interval, UPDRS Part II","[1]; NP002 versus Placebo, p-value 0.631","10.1 ± 0.96 (-3.2, 2.0)"
same,"UDysRS Evaluation of Dyskinesias on Ambulation, Difference LS Means","[1]; NP002 vs placebo, p-value 0.011*",-3.7 +/-1.9
same,"UDysRS Evaluation of Dyskinesias on 7 Body Parts, Difference LS Means","[1]; NP002 vs placebo, p-value 0.062",-2.8 +/-2.6
same,"Total Score UDysRS, Difference LS Means","[1]; NP002 vs placebo, p-value 0.092",-6.7 +/-4.1
same,"UDysRS Evaluation of Dyskinesias on Dressing, Difference LS Means","[1]; NP002 vs placebo, p-value 0.139",-2.1 +/-1.4
same,"UDysRS Evaluation of Dyskinesias on Drinking, Difference LS Means","[1]; NP002 vs placebo, p-value 0.171",-2.4 +/-1.7
same,"UDysRS Evaluation of Dyskinesias on Communication, Difference LS Means","[1]; NP002 vs placebo, p-value 0.189",-1.9 +/-1.4
same,patients with a reduction in retropulsion,"[1]; Ten of 30 NP002 patients, p=0.0228 vs placebo",33.3%
same,patients with a reduction in FOG,"[1]; Twelve of 30 NP002 patients, p=0.04301 vs placebo",40%
same,"PGI-C responders (subjects with a score of 1, 2, or 3)","[1]; Visit 4 (Week 10), 21 responders, p = 0.0048 vs placebo",77.8%
same,UPDRS II Change,[1]; baseline to 10 weeks,2.8 + 5.2
same,UPDRS III Change,[1]; baseline to 10 weeks,2.0 + 7.5
same,patient- and physician-rated assessments of efficacy versus placebo,"[1]; human, in vivo",superior to placebo
same,patients with either a reduction or absence of FOG during the active phase,"[1]; human, in vivo",~73%
same,patients with either a reduction or absence of falls during the active phase,"[1]; human, in vivo",~87%
same,patients with no FOG during the study,[1]; of 30 NP002 patients,10
same,patients with no falls during the study,[1]; of 30 NP002 patients,12
same,"reduction (improvement) in the effect of LIDs on ambulation, UDysRS ambulation subtest",[1]; p=0.011 vs placebo,46%
same,"reduction in LIDs, Total UDysRS",[1]; p=0.092 vs placebo,39%
same,Adverse Event: Constipation,[2]; N=35,5 (14.3) Number (%)
same,Adverse Event: Diarrhea,[2]; N=35,2 (5.7) Number (%)
same,Adverse Event: Dizziness,[2]; N=35,7 (20.0) Number (%)
same,Adverse Event: Fatigue,[2]; N=35,3 (8.6) Number (%)
same,Adverse Event: Headache,[2]; N=35,2 (5.7) Number (%)
same,Adverse Event: Insomnia,[2]; N=35,0 (0.0) Number (%)
same,Adverse Event: Nausea,[2]; N=35,13 (37.1) Number (%)
same,Adverse Event: Nightmare,[2]; N=35,2 (5.7) Number (%)
same,Adverse Event: Pain,[2]; N=35,3 (8.6) Number (%)
same,Adverse Event: Pain in extremity,[2]; N=35,2 (5.7) Number (%)
same,Adverse Event: Tremor,[2]; N=35,2 (5.7) Number (%)
same,Adverse Event: Vomiting,[2]; N=35,4 (11.4) Number (%)
same,Number (%) of subject with any AE,[2]; N=35,26 (74.3) Number (%)
same,Serum cotinine levels,[2]; compliance check,paralleled dosing of nicotine
same,adverse events reported,[2]; number of events among NP002 patients,45
same,Primary reason for study discontinuation: Adverse event,[2]; of 35 randomized,6 (17.1) n (%)
same,Primary reason for study discontinuation: Protocol violation,[2]; of 35 randomized,2 (5.7) n (%)
same,Subjects who completed study per protocol,[2]; of 35 randomized,25 (71.4) n (%)
same,Subjects who discontinued the study,[2]; of 35 randomized,10 (28.6) n (%)
same,subjects who completed the study,[2]; of 35 randomized,25 subjects
same,subjects who withdrew because of AEs,[2]; of 35 randomized,6 subjects
same,subjects who withdrew because of protocol violations,[2]; of 35 randomized,2 subjects
same,subjects who withdrew from the study,[2]; of 35 randomized,10 subjects
same,Primary reason for study discontinuation: Other,"[2]; subject going on vacation, of 35 randomized",2 (5.7) n (%)
same,Subjects who required dose reduction or discontinuation of study treatment,"[2]; treated subjects with any adverse events with action taken = reduced/discontinued study drug, of 35 randomized",7 (20.0) n (%)
same,time by which the plasma concentration of nicotine returns close to baseline,[3],~ 6 hours
same,Tmax,clinical,~1.5 h
